In patent US20250344734A1, “UNSATURATED FATTY ACIDS AND THEIR USE TO MODIFY TASTE” (Firmenich Incorporated, priority 2022, published 2025):

Biological target: T1, T2R75 (TAS2R46) (Homo sapiens, UniProt P59540)
T1 construct: expressed in transfected cells; host or cells: cells expressing a promiscuous G protein (e.g., G16g44)
T1 sequence (P59540 1-309): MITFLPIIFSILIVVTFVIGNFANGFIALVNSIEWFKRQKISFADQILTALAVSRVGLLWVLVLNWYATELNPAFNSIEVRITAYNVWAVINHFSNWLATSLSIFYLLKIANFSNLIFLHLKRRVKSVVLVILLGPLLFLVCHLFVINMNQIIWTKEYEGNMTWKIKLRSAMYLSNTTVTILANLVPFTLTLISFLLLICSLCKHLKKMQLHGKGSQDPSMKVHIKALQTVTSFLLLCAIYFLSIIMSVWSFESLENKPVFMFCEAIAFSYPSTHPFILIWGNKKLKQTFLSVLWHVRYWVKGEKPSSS
Test: FLIPR calcium assay, block of bitter agonist response, T2R75
Assay type: cell-based
Conditions: unsaturated fatty acid concentration of 200 µM, cells stimulated with known bitter agonist
Procedure: Cells expressing a promiscuous […] (e.g., G16g44) were transfected with vectors encoding 18 functional bitter receptor cDNAs, with one receptor per transfection. The cells were transfected directly in 384-well format high-density plates and incubated for 28 hours. Later, cells were loaded with the Ca-specific dye Fluo4-AM. After an incubation of 60 minutes, excess dye is washed off, and cells are stimulated with a known bitter agonist for each receptor and various unsaturated fatty acids. Changes in intracellular fluorescence are recorded using a FLIPR instrument. Bitter antagonists and corresponding receptors are identified based on percentage inhibition of agonist's activity on a given receptor.
The above protocol was carried out using 16 different unsaturated fatty acids. A particular T2R receptor was identified as being antagonized by a particular unsaturated fatty acid if it triggered a >25% block of agonist's cellular response at 200 μM concentration of unsaturated fatty acid. […] Table 2 indicates the sixteen (16) compounds tested by their compound number from Table 1 above. The 18 bitter taste receptors screened are the human bitter taste receptors we named. T2R01 (TAS2R01), T2R03 (TAS2R03), T2R04 (TAS2R04), T2R07 (TAS2R07), T2R08 (TAS2R08), T2R09 (TAS2R09), T2R10 (TAS2R10), T2R13 (TAS2R13), T2R14 (TAS2R14), T2R16 (TAS2R16), T2R54 (TAS2R39, T2R61 (TAS2R43), T2R63 (TA2R20), T2R64 (TAS2R31), T2R65 (TAS2R19), T2R67 (TAS2R50), T2R71 (TAS2R41), and T2R75 (TAS2R46). The corresponding IUPHAR nomenclature for each receptor is given in parenthesis. In Table 2, these receptors are identified by the last two digits. For example, T2R01 is indicated as 01. Table 2 reports the percentage block of cellular response over baseline at an unsaturated fatty acid concentration of 200 µM.

- percentage block of cellular response over baseline, 75: 50%
SMILES: CC(C)=CCC/C(C)=C/C(=O)O [Compound 129]
